Experimental findings from patent US5204471A, “α-trifluoromethyl-substituted, saturated bicyclic amines” (Bayer Aktiengesellschaft, priority 1991, dated 1993) are described below.

pIC50: −log10 of the molar value.

One experiment concerns the target T1, HIV protease (Human immunodeficiency virus type 1 group M subtype B, UniProt P04585).
T1 construct: purified HIV protease
As to the kind of experiment: HIV-specific protease enzyme test (cleavage of synthetic Gag peptide, RP HPLC). Format: biochemical. Particulars: purified HIV protease, HIV-1, synthetic peptide substrate; read-out: IC50 value (concentration causing 50% inhibition of the protease activity). On the procedure: HIV-specific protease enzyme test according to J. Hansen, S. Billich, T. Schulze, S. Sukrow and K. Molling, EMBO Journal, Vol. 7, No. 6, pages […] (1988).
This test was carried out by incubation of purified HIV protease with synthetic peptide which imitates a cleavage site in the Gag precursor protein and represents an in vivo cleavage point of the HIV protease. The resulting cleavage products of the synthetic peptide were analysed by reversed-phase high performance liquid chromatography (RP HPLC). The compound obtained according to Example 11 gave an IC50 value of 5×10^-8 with HIV-1. The IC50 value indicates the concentration of the substance causing 50% inhibition of the protease activity under the test conditions.

The next experiment relates to HIV. Description: HIV test in a cell culture (syncytia formation in infected PBLs). Format: cell-based. Particulars: Human immunodeficiency virus 1, Lymphocyte, 72 h; HIV-infected normal human blood lymphocytes (PBLs), evaluated day 3 to 6 after infection; read-out: IC50 value (PBL), 50% suppression of virus-induced syncytia. The method, then: HIV test in a cell culture with slight modifications according to Pauwels et al., Journal of Virological Methods 20, pages 309-321 (1988).
Normal human blood lymphocytes (PBLs) were concentrated via Ficoll-Hypaque and stimulated with phytohaemagglutinin (90 μg/ml) and interleukin-2 (40 U/ml) in RPMI 1640, 20% fetal calf serum. For infection with the infectious HIV, the PBLs were pelletised, and the cell pellet was then suspended in 1 ml of HIV virus adsorption solution and incubated at 37° C. for 1 hour.
The virus adsorption solution was centrifuged, and the infected cell pellet was taken up in growth medium in such a manner that 1×10^5 cells were present per ml. The cells infected in this manner were pipetted into the wells of 96-well microtitre plates in such a manner that each well contained 1×10^4 cells.
The first vertical row of the microtitre plate only contained growth medium and cells which were not infected but otherwise had been treated in the same manner as described above (cell control). The second vertical row of the microtitre plate only contained HIV-infected cells (virus control) in growth medium. […]
The test batches were incubated at 37° C. until the formation of syncytia typical for HIV occurred in the untreated virus control (between day 3 and 6 after infection), which formation was then evaluated under a microscope. […]

Take `CC(C)[C@H](NC(=O)[C@H](Cc1cccc2ccccc12)CS(=O)(=O)C(C)(C)C)C(=O)N[C@@H](Cc1ccccc1)C(O)CN1CCC2CCCCC2C1C(F)(F)F` (some centres unmarked) [Example 11]: the pIC50 is 7.30 on HIV protease and 5.60 with HIV.
